From patent US20110034507A1, “FARNESOID X RECEPTOR AGONISTS” (SMITHKLINE BEECHAM CORPORATION, priority 2007, published 2011)
“Also recorded” adds a separate entry of the source.

Tests used:
[1] = tested on: hepatic stellate cells (HSC); conditions: cultured HSCs; cited from earlier work
[2] = tested on: rodent models of hepatic fibrosis; conditions: multiple rodent models; cited from earlier work
[3] = molecular target: T1, Human FXRα Ligand Binding Domain (Homo sapiens, UniProt Q96RI1); assay: FXR Cofactor Binding Assay (ligand mediated SRC-1 cofactor peptide interaction, time resolved fluorescence); type: biochemical; conditions: FXRα LBD / SRC-1 (LCD2, 676-700) peptide, TRF; read-out: Activity (pEC50) (converted)
T1 construct: polyhistidine (pRSET-A vector leader) (N); made in house; host or cells: E. coli BL21 (DE3), pRSET-A vector
T1 sequence (Q96RI1 237-472 isoform Q96RI1-2): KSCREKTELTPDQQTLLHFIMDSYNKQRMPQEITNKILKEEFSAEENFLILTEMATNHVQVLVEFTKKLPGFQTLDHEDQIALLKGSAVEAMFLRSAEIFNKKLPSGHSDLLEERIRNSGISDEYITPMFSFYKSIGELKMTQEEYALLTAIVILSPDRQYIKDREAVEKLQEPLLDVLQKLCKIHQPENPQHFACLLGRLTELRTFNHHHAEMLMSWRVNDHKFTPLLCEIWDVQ

[4] = tested on: C57BL mice on high-fat diet; conditions: cited from earlier work
ob/ob mice = conditions: 30 mg/kg intraperitoneally, male ob/ob mice; cited from earlier work
db/db mice = conditions: cited from earlier work
bile duct-ligated mouse = conditions: cited from earlier work
[5] = tested on: mice on a lithogenic diet; conditions: cited from earlier work
[6] = GW4064 100 mg/kg twice a day orally

In the case of `CC[C@H]1[C@@H](O)[C@@H]2[C@H](CC[C@]3(C)[C@@H]([C@H](C)CCC(=O)O)CC[C@@H]23)[C@@]2(C)CC[C@@H](O)C[C@@H]12` [Example 6EtCDCA, 6-ethyl-chenodeoxycholic acid], the “expression of α1(I)collagen” value [1] is given as “decreased”, the “expression of α-smooth muscle actin” value [1] is given as “decreased” and the hepatic fibrosis [2] is given as “prevent development and promote resolution”.

`CC(C)c1onc(-c2c(Cl)cccc2Cl)c1COc1ccc2c(c1)CC(c1cccc(C(=O)O)c1)C2` (centres unmarked) [Example 57, 3-[5-({[3-(2,6-Dichlorophenyl)-5-(1-methylethyl)-4-isoxazolyl]methyl}oxy)-2,3-dihydro-1H-inden-2-yl]benzoic acid] showed an EC50 [3] of 0.102 to 1 µM.

`CC(C)c1onc(-c2c(Cl)cccc2Cl)c1COc1ccc2c(ccn2Cc2cccc(C(=O)O)c2)c1` [Example 59, 3-{[5-({[3-(2,6-Dichlorophenyl)-5-(1-methylethyl)-4-isoxazolyl]methyl}oxy)-1H-indol-1-yl]methyl}benzoic acid] gave an EC50 [3] of 0.102 to 1 µM.

For `CC(C)c1onc(-c2c(Cl)cccc2Cl)c1COc1ccc2c(c1)CCN(c1cccc(C(=O)O)c1)C2=O` [Example 60, 3-[6-({[3-(2,6-Dichlorophenyl)-5-(1-methylethyl)-4-isoxazolyl]methyl}oxy)-1-oxo-3,4-dihydro-2(1H)-isoquinolinyl]benzoic acid], the EC50 [3] was 0.102 to 1 µM.

For `CC(C)c1onc(-c2c(Cl)cccc2Cl)c1COc1ccc(/C=C/c2cccc(C(=O)O)c2)c(Cl)c1` [GW4064], the “body weight (high-fat diet induced body weight gain)” value ([4]; GW4064 100 mg/kg twice a day orally, 100 mg/kg) is given as “decreased; also recorded: reduced”, the glucose tolerance ([4]; GW4064 100 mg/kg twice a day orally, GTT, 100 mg/kg) is given as “corrected glucose intolerance; also recorded: appeared to improve” and the liver triglyceride content [4, 6] is given as “reduced”. For the same compound, the serum glucose [4, 6] was “decreased”, the serum insulin [4, 6] was “decreased” and the serum triglyceride [4, 6] was “decreased”. The body fat mass [4] was “decreased”, the total cholesterol [4] was “decreased” and the body weight (ob/ob mice) was “did not alter”. The fasting blood glucose (ob/ob mice) was “no effect”, the food intake (ob/ob mice) was “did not alter” and the glucose tolerance (ob/ob mice) was “improved”. The insulin concentration (ob/ob mice) was “decreased”, the insulin sensitivity (ob/ob mice) was “enhanced” and the “glycogen storage in the liver” value (db/db mice; db/db mice) was “enhanced”. The “insulin signalling in the liver” value (db/db mice; db/db mice) was “enhanced”, the hyperglycemia (db/db mice; diabetic db/db mice) was “significantly improved” and the hyperlipidemia (db/db mice; diabetic db/db mice) was “significantly improved”. For the same compound, the NEFA (db/db mice; oral 30 mg/kg, bid, db/db mice) was “decreased”, the blood glucose (db/db mice; oral 30 mg/kg, bid, db/db mice) was “decreased” and the serum hydroxybutyrate (db/db mice; oral 30 mg/kg, bid, db/db mice) was “decreased”. For the same compound, the total cholesterol (db/db mice; oral 30 mg/kg, bid, db/db mice) was “decreased”, the triglyceride (db/db mice; oral 30 mg/kg, bid, db/db mice) was “decreased” and the “effect on translocation of bacteria in FXR null mice” value (bile duct-ligated mouse; FXR null mice) was “lost”. The bacterial overgrowth (bile duct-ligated mouse; bile duct-ligated mouse) was “decreased”, the mucosal barrier (bile duct-ligated mouse; bile duct-ligated mouse) was “improved” and the “translocation of bacteria to mesenteric lymph nodes” value (bile duct-ligated mouse; bile duct-ligated mouse) was “decreased”. The “effect on cholesterol crystal formation in FXR null mice” value ([5]; FXR null mice) was “lost” and the “formation of cholesterol crystals in the bile” value ([5]; mice on a lithogenic diet) was “prevented”.
